# Earlier results, collected in patent US11553715B2, “Synthesis and formulation of lignin derived compounds as treatment of plant diseases” (University of Kentucky Research Foundation, priority 2019, dated 2023).
# Experiments:
# [1] = system: yeast
# [2] = system: bacteria
structure (smiles),measurement,setting,value
COc1cc(C=O)ccc1O [Vanillin],antimicrobial concentration as a food preservative,[1],0.76 mg/mL
same,antimicrobial concentration as a food preservative,[2],1.5 mg/mL
